According to patent US20250282757A1, “ARYL ETHER-SUBSTITUTED HETEROCYCLIC COMPOUNDS AS GLP1R AGONISTS” (MINDRANK AI LTD., priority 2021, published 2025):

Biological target: GLP-1R (Homo sapiens, UniProt P43220)
Experiment: Agonist activity on GLP-1R, HTRF cAMP detection in stably transfected GLP-1R/HEK293 cells
Type: cell-based
Details: for EC50: 30 min incubation; for Max activity: relative to top concentration of reference GLP-1(7-37)
Procedure: Detection of Agonist Activity of the Test Compounds on GLP-1R
• 1) The test compound was dissolved in DMSO and diluted 4-fold with Bravo for a total of 10 concentration gradients (the starting concentration was 1 mM). […] HBSS (10 mL) pre-warmed at 37° C. was added, mixed gently, and centrifuged at 1000 rpm for 5 minutes. The supernatant was discarded and another 10 mL of […] was added and mixed gently. […] The plate was shaken to mix at 2000 rpm for 60 seconds. • 7) The cells in the 384-well plate were incubated in CO2 cell incubator at 37° C. for 30 min. • 8) 10 μL of HTRF cAMP detection solution was added to the 384-well plate, stick with sealing film, and incubated at room temperature for 1 hour. • 9) After 1 hour of incubation, the sealing film was removed. The plate was put into the EnVision microplate reader to read the values of OD665 nm and OD615 nm.

GLP-1R, sequence (P43220 24-463): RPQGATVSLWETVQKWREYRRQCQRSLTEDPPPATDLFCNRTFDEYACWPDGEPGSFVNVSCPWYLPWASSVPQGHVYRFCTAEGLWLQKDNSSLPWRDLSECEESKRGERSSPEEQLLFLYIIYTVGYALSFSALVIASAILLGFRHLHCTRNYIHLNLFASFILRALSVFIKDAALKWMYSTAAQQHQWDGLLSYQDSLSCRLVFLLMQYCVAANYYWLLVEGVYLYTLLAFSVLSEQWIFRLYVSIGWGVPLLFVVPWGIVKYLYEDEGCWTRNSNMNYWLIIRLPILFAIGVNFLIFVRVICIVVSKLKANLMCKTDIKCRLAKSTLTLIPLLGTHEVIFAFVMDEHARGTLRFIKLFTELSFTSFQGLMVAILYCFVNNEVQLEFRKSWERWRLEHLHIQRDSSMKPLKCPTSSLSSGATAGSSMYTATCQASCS

Row | Compound | EC50 | Max activity
1 | CCn1cncc1Cn1c(CN2CCN(Cc3cccc(COc4ccc(C#N)cc4F)n3)CC2)nc2ccc(C(=O)O)cc21 [Compound C38, 2-((4-((6-((4-cyano-2-fluorophenoxy)methyl)pyridin-2-yl)methyl)piperazin-1-yl)methyl)-1-((1-ethyl-1H-imidazol-5-yl)methyl)-1H-benzo[d]imidazole-6-carboxylic acid] | > 100 nM | 
2 | CCn1nccc1Cn1c(CN2CCC(Oc3cccc(COc4ccc(C#N)cc4F)n3)CC2)nc2ccc(C(=O)O)cc21 [Compound C39, 2-((4-((6-((4-cyano-2-fluorophenoxy)methyl)pyridin-2-yl)oxy)piperidin-1-yl)methyl)-1-((1-ethyl-1H-pyrazol-5-yl)methyl)-1H-benzo[d]imidazole-6-carboxylic acid] | 7.93 nM | 142.8%
3 | CCn1nc(C)cc1Cn1c(CN2CCC(Oc3cccc(COc4ccc(C#N)cc4F)n3)CC2)nc2ccc(C(=O)O)cc21 [Compound C40, 2-((4-((6-((4-cyano-2-fluorophenoxy)methyl)pyridin-2-yl)oxy)piperidin-1-yl)methyl)-1-((1-ethyl-3-methyl-1H-pyrazol-5-yl)methyl)-1H-benzo[d]imidazole-6-carboxylic acid] | 6.5 nM | 90.7%
4 | N#Cc1ccc(OCc2cccc(SC3CCN(Cc4nc5ccc(C(=O)O)cc5n4C[C@@H]4CCO4)CC3)n2)c(F)c1 [Compound C41, (S)-2-((4-((6-((4-cyano-2-fluorophenoxy)methyl)pyridin-2-yl)thio)piperidin-1-yl)methyl)-1-(oxetan-2-ylmethyl)-1H-benzo[d]imidazole-6-carboxylic acid] | 4.16 nM | 122.3%
5 | N#Cc1ccc(OCc2cccc(OC3CCN(Cc4cc5ccc(C(=O)O)cc5n4CC4CCO4)CC3)n2)c(F)c1 (stereo not drawn) [Compound C42, 2-((4-((6-((4-cyano-2-fluorophenoxy)methyl)pyridin-2-yl)oxy)piperidin-1-yl)methyl)-1-(oxetan-2-ylmethyl)-1H-indole-6-carboxylic acid] | > 100 nM | 
6 | N#Cc1ccc(COc2cccc(Oc3cc(F)c(Cc4nc5c(F)cc(C(=O)O)cc5n4C[C@@H]4CCO4)cc3F)n2)c(F)c1 [Compound C43, (S)-2-(4-((6-((4-cyano-2-fluorobenzyl)oxy)pyridin-2-yl)oxy)-2,5-difluorobenzyl)-4-fluoro-1-(oxetan-2-ylmethyl)-1H-benzo[d]imidazole-6-carboxylic acid] | 5.31 nM | 88.8%
7 | N#Cc1ccc(OCc2cccc(OC3CCN(Cc4nc5ccc(C(=O)O)cc5n4CC4COC4)CC3)n2)c(F)c1 [Compound C82, 2-((4-((6-((4-cyano-2-fluorophenoxy)methyl)pyridin-2-yl)oxy)piperidin-1-yl)methyl)-1-(oxetan-3-ylmethyl)-1H-benzo[d]imidazole-6-carboxylic acid] | 7.48 nM | 90.7%
8 | N#Cc1ccc(OCc2nc(OC3CCN(Cc4nc5ccc(C(=O)O)cc5n4C[C@@H]4CCO4)CC3)ccc2F)c(F)c1 [Compound C83, (S)-2-((4-((6-((4-cyano-2-fluorophenoxy)methyl)-5-fluoropyridin-2-yl)oxy)piperidin-1-yl)methyl)-1-(oxetan-2-ylmethyl)-1H-benzo[d]imidazole-6-carboxylic acid] | 0.705 nM | 111.1%
9 | N#CCC1(Cn2c(CN3CCC(Oc4cccc(COc5ccc(Cl)cc5F)n4)CC3)nc3ccc(C(=O)O)cc32)CC1 [Compound C84, 2-((4-((6-((4-chloro-2-fluorophenoxy)methyl)pyridin-2-yl)oxy)piperidin-1-yl)methyl)-1-((1-(cyanomethyl)cyclopropyl)methyl)-1H-benzo[d]imidazole-6-carboxylic acid] | 0.246 nM | 136.4%
10 | N#Cc1ccc(COc2cccc(OCC3CCN(Cc4nc5ccc(C(=O)O)cc5n4C[C@@H]4CCO4)CC3)n2)c(F)c1 [Compound S1] | 1400 nM | 93.7%
11 | N#Cc1ccc(COc2cccc(OC3CCN(Cc4nc5ccc(C(=O)O)cc5n4C[C@@H]4CCO4)CC3)n2)c(F)c1 [Compound S2, (S)-2-((4-((6-((4-cyano-2-fluorobenzyl)oxy)pyridin-2-yl)oxy)piperidin-1-yl)methyl)-1-(oxetan-2-ylmethyl)-1H-benzo[d]imidazole-6-carboxylic acid] | 5.58 nM | 139.9%
12 | N#Cc1ccc(COc2cccc(OC3CN(Cc4nc5ccc(C(=O)O)cc5n4C[C@@H]4CCO4)C3)n2)c(F)c1 [Compound S3, (S)-2-((3-((6-((4-cyano-2-fluorobenzyl)oxy)pyridin-2-yl)oxy)azetidin-1-yl)methyl)-1-(oxetan-2-ylmethyl)-1H-benzo[d]imidazole-6-carboxylic acid] | 2170 nM | 70.1%
13 | CCn1cncc1Cn1c(CN2CCC(Oc3cccc(OCc4ccc(C#N)cc4F)n3)CC2)nc2ccc(C(=O)O)cc21 [Compound S4, 2-((4-((6-((4-cyano-2-fluorobenzyl)oxy)pyridin-2-yl)oxy)piperidin-1-yl)methyl)-1-((1-ethyl-1H-imidazol-5-yl)methyl)-1H-benzo[d]imidazole-6-carboxylic acid] | 0.29 nM | 106.9%
14 | N#Cc1ccc(COc2cccc(OC3CCN(Cc4nc5ccc(C(=O)O)cc5n4C[C@@H]4CCO4)CC3)c2)c(F)c1 [Compound S5, (S)-2-((4-(3-((4-cyano-2-fluorobenzyl)oxy)phenoxy)piperidin-1-yl)methyl)-1-(oxetan-2-ylmethyl)-1H-benzo[d]imidazole-6-carboxylic acid] | 15.4 nM | 125.2%
15 | N#CCC1(Cn2c(CN3CCC(Oc4cccc(OCc5ccc(C#N)cc5F)c4)CC3)nc3c(F)cc(C(=O)O)cc32)CC1 [Compound S6] | 2.6 nM | 114.9%
16 | N#CCC1(Cn2c(CN3CCC(Oc4cccc(OCc5ccc(C#N)cc5F)n4)CC3)nc3c(F)cc(C(=O)O)cc32)CC1 [Compound S20] | 0.962 nM | 129.1%
17 | N#Cc1ccc(COc2cccc(COC3CCN(Cc4nc5ccc(C(=O)O)cc5n4C[C@@H]4CCO4)CC3)n2)c(F)c1 [Compound S22, (S)-2-((4-((6-((4-cyano-2-fluorobenzyl)oxy)pyridin-2-yl)methoxy)piperidin-1-yl)methyl)-1-(oxetan-2-ylmethyl)-1H-benzo[d]imidazole-6-carboxylic acid] | 731 nM | 92.7%
18 | CCn1cncc1Cn1c(CN2CCC(Oc3cccc(OCc4ccc(C#N)cc4F)c3)CC2)nc2ccc(C(=O)O)cc21 [Compound S23, 2-((4-(3-((4-cyano-2-fluorobenzyl)oxy)phenoxy)piperidin-1-yl)methyl)-1-((1-ethyl-1H-imidazol-5-yl)methyl)-1H-benzo[d]imidazole-6-carboxylic acid] | 1.47 nM | 98.0%
19 | O=C(O)/C=C/c1ccc2nc(CN3CCC(Oc4ccc(F)c(OCc5ccc(Cl)cc5F)n4)CC3)n(C[C@@H]3CCO3)c2c1 [Compound S36] | 150 nM | 114.2%
20 | N#CCC1(Cn2c(CN3CCC(Oc4ccc(F)c(OCc5ccc(Cl)cc5F)n4)CC3)nc3c(F)cc(C(=O)O)cc32)CC1 [Compound S41, 2-((4-((6-((4-chloro-2-fluorobenzyl)oxy)-5-fluoropyridin-2-yl)oxy)piperidin-1-yl)methyl)-1-((1-(cyanomethyl)cyclopropyl)methyl)-4-fluoro-1H-benzo[d]imidazole-6-carboxylic acid] | 21.7 nM | 94.8%
21 | Glucagon-like peptide-1 [GLP-1(7-37), reference compound] |  | 98.1%
